Here are results for nine compounds from patent publication US12059422B2 (MEI Pharma, Inc., priority 2011, dated 2024).

Each structure is given as a SMILES string.

Test [1] concerns the target T1, PI3Kβ (Homo sapiens, UniProt P42338).
T1 construct: endogenous in cells; host or cells: PC-3 (ATCC #CRL-1435)
Kind of test: ELISA assay for PI3Kβ: in-cell ELISA, phosphorylation of AKT (Ser473) in PC-3 cells. The conditions noted are these: for IC50: cellular, pAKT (Ser473), PC-3 cells, LPA stimulation, read-out: IC50 p110β; for α/β ratio: ratio of cellular IC50 values, Table 2. Format: cell-based. The method, then: Cellular PI3Kβ activity was determined by measuring the phosphorylation of AKT (Ser473) using an in-cell ELISA assay. PC-3 (prostate carcinoma) cells were obtained from ATCC (ATCC #CRL-1435). Growth medium was DMEM (CellGro #CV-10-013-CV) supplemented with 10% fetal bovine serum, 100 IU/mL penicillin, 100 μg/mL streptomycin, and 1×MEM non-essential amino acids. Phosphate buffered saline (PBS) contained 2.7 M NaCl, 54 mM KCl, 86 mM […] (dibasic, anhydrous), 28 mM […] (monobasic, anhydrous), pH 7.2, 10× stimulation mixture contained 50 μM LPA (Cayman #62215) diluted in serum-free DMEM medium (CellGro #CV-10-013-CV). Compounds for testing were dissolved and serially diluted in 100% DMSO (total of 10 concentrations), then diluted in serum-free DMEM to 2× final assay concentration. 2× fixative solution contained 8% formaldehyde (Amresco #M134) diluted in PBS. Permeabilization solution contained PBS supplemented with 0.1% Triton X-100. Blocking buffer was obtained from LiCor (LiCor #927-40000). Wash buffer contained PBS supplemented with 0.1% Tween-20. Primary antibody solution was rabbit anti-pAKT^S473 monoclonal antibody (Cell Signaling #4060) and mouse anti-total S6 (Santa Cruz #74459) diluted 1:500 and 1:2000, respectively, in blocking buffer. Secondary antibody solution was IRDye 800CW-conjugated goat anti-rabbit IgG (LiCor #926-32211) and IRDye 680LT-conjugated goat anti-mouse IgG (LiCor #926-68020) diluted 1:2000 and 1:1000, respectively, in blocking buffer.
PC-3 cells were subcultured in growth medium and seeded into flat, clear bottom, 96-well plates (Corning #3904) at 16000 cells/well, then incubated overnight in a 37° C., 5% CO2 incubator. Growth medium in plates was replaced with 100 μL/well serum-free DMEM and incubated overnight in a 37° C., 5% CO2 incubator. 50 μL/well of fresh serum-free DMEM was added to plates. Compound treatment was performed by adding 50 μL/well of 2× compound mixture to plates and incubating for 2 hrs at 37° C., 5% CO2, after which 11 μL/well of 10× stimulation mixture was added and plates were incubated for 10 min at 37° C., 5% CO2. Fixation was performed by adding 110 μL/well of 2× fixative solution to plates and incubating for 20 min at room temperature. Permeabilization was performed by replacing fixation solution with 150 μL/well permeabilization solution and incubating for 10 min at room temperature. Permeabilization was repeated (for a total of 2 times). Permeabilization solution was replaced with 100 μL/well blocking buffer and plates were incubated for 1 hr at room temperature, after which 100 μL/well of primary antibody solution was added and plates were incubated overnight at 4° C. Plates were washed with wash buffer, after which 100 μL/well of secondary antibody solution was added to the plates and incubated in the dark for 1 hr at room temperature. Plates were washed with wash buffer, followed by awash with PBS. After completely removing PBS, plates were scanned on the Licor Odyssey Imager. Images quantified using Licor Odyssey application software. IC50 values were determined by curve fitting using a Collaborative Drug Discovery database (www.collaborativedrug.com).

The target of test [2] is T2, PI3Kγ (Mus musculus, UniProt Q9JHG7).
T2 construct: endogenous in cells; host or cells: RAW 264.7 (ATCC #TIB-71)
Briefly: ELISA assay for PI3Kγ: in-cell ELISA, phosphorylation of AKT (Ser473) in RAW 264.7 cells. Format: cell-based. The following applies: cellular, pAKT (Ser473), C5a stimulation, read-out: IC50 p110γ. The method, then:
PI3K gamma (PI3Kγ) activity was determined by measuring the phosphorylation of AKT (Ser473) using an in-cell ELISA assay. RAW 264.7 (mouse macrophage) cells were obtained from ATCC (ATCC #TIB-71). Growth medium was DMEM (CellGro #CV-10-013-CV) supplemented with 10% fetal bovine serum, 100 IU/mL penicillin, 100 μg/mL streptomycin, and 1×MEM non-essential amino acids. Phosphate buffered saline (PBS) contained 2.7 M NaCl, 54 mM KCl, 86 mM […] (dibasic, anhydrous), and 28 mM […] (monobasic, anhydrous) at pH 7.2. Stimulation mixture (10×) was 500 ng/mL recombinant human complement component C5a (R&D systems #2037-C5-025) diluted in serum-free DMEM medium (CellGro #CV-10-013-CV). Compounds for testing were dissolved and serially diluted in 100% DMSO (total of 10 concentrations), then diluted in serum-free DMEM to 2× final assay concentration. Fixative solution (2×) was 8% formaldehyde (Amresco #M134) diluted in PBS. Permeabilization solution was PBS supplemented with 0.10% Triton X-100. Blocking buffer was obtained from LiCor (LiCor #927-40000). Wash buffer was PBS supplemented with 0.1% Tween-20. Primary antibody solution was rabbit anti-pAKT^S473 monoclonal antibody (Cell Signaling #4060) and mouse anti-total S6 (Santa Cruz #74459) diluted 1:500 and 1:2000, respectively, in the blocking buffer. Secondary antibody solution was IRDye 800CW-conjugated goat anti-rabbit IgG (LiCor #926-32211) and IRDye 680LT-conjugated goat anti-mouse IgG (LiCor #926-68020) diluted 1:1000 and 1:2000, respectively, in the blocking buffer.
RAW 264.7 cells were subcultured in growth medium and seeded into flat, clear bottom, 96-well plates (Corning #3904) at 70000 cells/well, then incubated overnight in a 37° C., 5% CO2 incubator. Growth medium in plates was replaced with 100 μL/well serum-free DMEM and incubated overnight in a 37° C., 5% CO2 incubator. Fresh serum-free DMEM (50 μL/well) was added to plates. Compound treatment was performed by adding 50 μL/well of 2× compound mixture to plates and incubating for 2 hrs at 37° C., 5% CO2, after which 11 μL/well of 10× stimulation mixture was added and plates were incubated for 3 min at 37° C., 5% CO2. Fixation was performed by adding 110 μL/well of 2× fixative solution to plates and incubating for 20 min at room temperature. Permeabilization was performed by replacing fixation solution with 150 μL/well permeabilization solution and incubating for 10 min at room temperature. Permeabilization was repeated (for a total of 2 times). Permeabilization solution was replaced with 100 μL/well blocking buffer and plates were incubated for 1 hr at room temperature, after which 100 μL/well of primary antibody solution was added and plates were incubated overnight at 4° C. Plates were washed with wash buffer, after which 100 μL/well of secondary antibody solution was added to the plates and incubated in the dark for 1 hr at room temperature. Plates were washed with wash buffer, followed by awash with PBS. After completely removing PBS, plates were scanned on the Licor Odyssey Imager. Images were quantified using Licor Odyssey application software. IC50 values were determined by curve fitting using a Collaborative Drug Discovery database (www.collaborativedrug.com).

T2 sequence (Q9JHG7 whole entry): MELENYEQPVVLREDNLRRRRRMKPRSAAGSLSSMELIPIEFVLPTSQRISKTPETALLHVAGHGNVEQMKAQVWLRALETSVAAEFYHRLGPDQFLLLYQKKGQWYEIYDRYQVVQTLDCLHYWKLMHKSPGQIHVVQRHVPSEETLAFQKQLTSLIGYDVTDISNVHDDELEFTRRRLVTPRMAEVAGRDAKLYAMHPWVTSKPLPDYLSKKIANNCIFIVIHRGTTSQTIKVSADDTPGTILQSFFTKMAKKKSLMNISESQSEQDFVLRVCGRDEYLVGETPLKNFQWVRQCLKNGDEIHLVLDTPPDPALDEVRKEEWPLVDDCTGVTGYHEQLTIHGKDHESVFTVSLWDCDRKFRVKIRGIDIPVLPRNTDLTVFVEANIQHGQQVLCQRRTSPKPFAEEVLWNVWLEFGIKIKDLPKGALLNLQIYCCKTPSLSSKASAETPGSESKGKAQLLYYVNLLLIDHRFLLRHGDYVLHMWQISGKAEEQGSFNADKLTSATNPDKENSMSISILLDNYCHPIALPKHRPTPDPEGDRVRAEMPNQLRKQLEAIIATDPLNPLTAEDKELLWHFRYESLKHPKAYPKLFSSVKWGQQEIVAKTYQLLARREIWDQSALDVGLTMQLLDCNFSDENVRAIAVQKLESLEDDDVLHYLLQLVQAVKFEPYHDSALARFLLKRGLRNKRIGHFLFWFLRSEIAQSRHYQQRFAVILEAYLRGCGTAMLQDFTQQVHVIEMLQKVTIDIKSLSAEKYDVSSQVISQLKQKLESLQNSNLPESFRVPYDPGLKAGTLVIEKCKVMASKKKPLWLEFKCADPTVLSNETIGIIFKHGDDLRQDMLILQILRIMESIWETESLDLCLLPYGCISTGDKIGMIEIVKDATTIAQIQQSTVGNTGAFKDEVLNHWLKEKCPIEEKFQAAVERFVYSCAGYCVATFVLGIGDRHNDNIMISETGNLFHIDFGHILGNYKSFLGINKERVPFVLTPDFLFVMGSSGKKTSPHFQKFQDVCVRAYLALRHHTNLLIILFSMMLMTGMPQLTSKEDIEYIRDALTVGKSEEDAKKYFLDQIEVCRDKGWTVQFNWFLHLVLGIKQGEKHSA
T1 sequence (P42338 whole entry): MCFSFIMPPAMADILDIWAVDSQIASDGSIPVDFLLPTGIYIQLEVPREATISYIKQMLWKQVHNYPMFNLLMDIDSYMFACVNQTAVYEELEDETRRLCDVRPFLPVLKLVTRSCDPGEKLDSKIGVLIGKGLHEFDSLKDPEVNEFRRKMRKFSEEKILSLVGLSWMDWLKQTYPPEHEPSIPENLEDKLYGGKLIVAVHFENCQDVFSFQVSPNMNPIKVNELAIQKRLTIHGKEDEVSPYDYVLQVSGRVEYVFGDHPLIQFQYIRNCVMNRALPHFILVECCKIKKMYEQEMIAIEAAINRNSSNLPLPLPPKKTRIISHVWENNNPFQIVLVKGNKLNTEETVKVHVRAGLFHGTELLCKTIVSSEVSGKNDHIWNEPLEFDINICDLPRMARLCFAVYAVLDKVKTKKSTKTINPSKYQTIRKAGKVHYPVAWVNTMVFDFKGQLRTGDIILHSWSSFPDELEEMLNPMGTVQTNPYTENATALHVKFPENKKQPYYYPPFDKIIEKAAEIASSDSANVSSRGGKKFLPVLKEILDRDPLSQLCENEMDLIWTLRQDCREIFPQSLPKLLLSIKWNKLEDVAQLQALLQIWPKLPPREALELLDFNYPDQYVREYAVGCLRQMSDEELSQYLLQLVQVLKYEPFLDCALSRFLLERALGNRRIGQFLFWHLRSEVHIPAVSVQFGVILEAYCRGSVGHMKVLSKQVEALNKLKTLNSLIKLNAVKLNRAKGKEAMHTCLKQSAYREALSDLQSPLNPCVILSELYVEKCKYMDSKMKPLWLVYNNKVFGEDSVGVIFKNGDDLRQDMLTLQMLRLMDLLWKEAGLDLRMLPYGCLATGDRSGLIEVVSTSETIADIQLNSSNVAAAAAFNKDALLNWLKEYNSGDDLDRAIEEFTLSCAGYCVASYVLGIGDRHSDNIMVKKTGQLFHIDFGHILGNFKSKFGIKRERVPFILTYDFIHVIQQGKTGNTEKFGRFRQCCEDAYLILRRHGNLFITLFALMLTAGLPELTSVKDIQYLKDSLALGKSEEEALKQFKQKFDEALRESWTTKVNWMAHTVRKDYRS
T1 sequence (P27986 whole entry partner): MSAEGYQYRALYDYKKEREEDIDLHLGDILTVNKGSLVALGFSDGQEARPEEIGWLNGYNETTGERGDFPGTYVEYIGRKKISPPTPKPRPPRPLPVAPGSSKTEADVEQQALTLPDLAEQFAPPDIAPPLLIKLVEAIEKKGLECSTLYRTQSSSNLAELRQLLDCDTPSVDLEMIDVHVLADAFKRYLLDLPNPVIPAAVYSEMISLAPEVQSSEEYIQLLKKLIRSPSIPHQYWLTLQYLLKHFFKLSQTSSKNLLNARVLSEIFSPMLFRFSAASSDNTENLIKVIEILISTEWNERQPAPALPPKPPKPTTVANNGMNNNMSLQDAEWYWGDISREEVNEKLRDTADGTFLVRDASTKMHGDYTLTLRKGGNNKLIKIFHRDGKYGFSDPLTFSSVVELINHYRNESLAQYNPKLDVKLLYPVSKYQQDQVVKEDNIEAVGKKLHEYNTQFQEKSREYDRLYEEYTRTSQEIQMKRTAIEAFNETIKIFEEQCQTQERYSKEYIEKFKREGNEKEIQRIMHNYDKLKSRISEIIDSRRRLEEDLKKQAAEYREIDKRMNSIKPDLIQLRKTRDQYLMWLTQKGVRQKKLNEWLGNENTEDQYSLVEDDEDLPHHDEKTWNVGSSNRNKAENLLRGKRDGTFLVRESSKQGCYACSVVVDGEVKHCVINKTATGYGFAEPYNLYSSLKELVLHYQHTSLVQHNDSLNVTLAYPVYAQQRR

In the case of `CC(C)(Cc1ccccc1C1CCN(S(C)(=O)=O)CC1)Nc1nc(N2CCOCC2)nc(-n2c(C(F)F)nc3ccccc32)n1` [Compound A73, 4-(2-(difluoromethyl)-1H-benzo[d]imidazol-1-yl)-N-(2-methyl-1-(2-(1-(methylsulfonyl)piperidin-4-yl)phenyl)propan-2-yl)-6-morpholino-1,3,5-triazin-2-amine], in test [1], the concentration for half-maximal inhibition (IC50) was no more than 100 nM and the α/β ratio entry is on record as “A’”. In addition, the IC50 in test [2] is no more than 100 nM.

With `CC(C)(Cc1ccccc1Cl)Nc1nc(N2CCOCC2)nc(-n2c(C(F)F)nc3ccccc32)n1` [Compound A16, 4-(2-(difluoromethyl)-1H-benzo[d]imidazol-1-yl)-N-(1-(2-chlorophenyl)-2-methylpropan-2-yl)-6-morpholino-1,3,5-triazin-2-amine], in test [1], the IC50 was no more than 100 nM and the α/β ratio result was “B’”. Further, the half-maximal inhibitory concentration (IC50) in test [2] was greater than 500 nM.

With `CN1CCC(c2ccccc2CC(C)(C)Nc2nc(N3CCOCC3)nc(-n3c(C(F)F)nc4ccccc43)n2)C1` (stereo not drawn) [Compound A75, 4-(2-(difluoromethyl)-1H-benzo[d]imidazol-1-yl)-N-(2-methyl-1-(2-(1-methylpyrrolidin-3-yl)phenyl)propan-2-yl)-6-morpholino-1,3,5-triazin-2-amine], in test [1], the IC50 was no more than 100 nM and the α/β ratio entry is given as “A’”. The IC50 in test [2] is 100 to 200 nM.

Consider `CC(C)(Cc1c(F)cccc1F)Nc1nc(N2CCOCC2)nc(-n2c(C(F)F)nc3ccccc32)n1` [Compound A52, 4-(2-(difluoromethyl)-1H-benzo[d]imidazol-1-yl)-N-(1-(2,6-difluorophenyl)-2-methylpropan-2-yl)-6-morpholino-1,3,5-triazin-2-amine], for which, in test [1], the IC50 was no more than 100 nM and the α/β ratio entry is listed as “C’”. In test [2], the half-maximal inhibitory concentration (IC50) lay within 100 to 200 nM.

Turning to `COc1ccc(-c2ccccc2CC(C)(C)Nc2nc(N3CCOCC3)nc(-n3c(C(F)F)nc4ccccc43)n2)cc1` [Compound A67, 4-(2-(difluoromethyl)-1H-benzo[d]imidazol-1-yl)-N-(1-(4′-methoxybiphenyl-2-yl)-2-methylpropan-2-yl)-6-morpholino-1,3,5-triazin-2-amine], the values for the IC50 in test [1] and in test [2] were 200 to 500 nM and greater than 500 nM, respectively. Further, the α/β ratio result in test [1] is reported as “A’”.

Take `COc1ccccc1CC(C)(C)Nc1nc(N2CCOCC2)nc(-n2c(C(F)F)nc3ccccc32)n1` [Compound A19, 4-(2-(difluoromethyl)-1H-benzo[d]imidazol-1-yl)-N-(1-(2-methoxyphenyl)-2-methylpropan-2-yl)-6-morpholino-1,3,5-triazin-2-amine]: the IC50 in test [1] was no more than 100 nM.

In the case of `Cc1ccccc1-c1ccccc1CC(C)(C)Nc1nc(N2CCOCC2)nc(-n2c(C(F)F)nc3ccccc32)n1` [Compound A60, 4-(2-(difluoromethyl)-1H-benzo[d]imidazol-1-yl)-N-(2-methyl-1-(2′-methylbiphenyl-2-yl)propan-2-yl)-6-morpholino-1,3,5-triazin-2-amine], the IC50 is 200 to 500 nM in test [1] and greater than 500 nM in test [2]. Besides, in test [1], the α/β ratio result is listed as “A’”.

As to `CC(C)(Cc1cccc2ccccc12)Nc1nc(N2CCOCC2)nc(-n2c(C(F)F)nc3ccccc32)n1` [Compound A27, 4-(2-(difluoromethyl)-1H-benzo[d]imidazol-1-yl)-N-(2-methyl-1-(naphthalen-1-yl)propan-2-yl)-6-morpholino-1,3,5-triazin-2-amine], the IC50 in test [1] is no more than 100 nM.

On to `CC(C)(Cc1ccccc1-c1ccncc1)Nc1nc(N2CCOCC2)nc(-n2c(C(F)F)nc3ccccc32)n1` [Compound A33, 4-(2-(difluoromethyl)-1H-benzo[d]imidazol-1-yl)-N-(2-methyl-1-(2-(pyridin-4-yl)phenyl)propan-2-yl)-6-morpholino-1,3,5-triazin-2-amine], for which the IC50 in test [1] is no more than 100 nM.
